Measurements as given in patent publication US20040043919A1, “Method for the treatment of neurological and neuropsychological disorders” (priority 2003, published 2004).
Values belong to the compound of their own block, whether it stands above or below them.

How the values were obtained:
[1] = target: T1, attractin from human plasma (Homo sapiens, UniProt O75882); test: MALDI-TOF analysis of peptide cleavage by purified attractin in presence or absence of isoleucyl-thiazolidine; type: biochemical; conditions: peptide 25 μM, 37° C.; for Cleavage of bioactive peptide by purified attractin: tricine/HCl pH 7.6, MALDI-TOF (FIG. 1)
T1 construct: was prepared from 100 ml plasma from healthy humans; tissue Baxter GmbH Germany, Plasmazentrum Halle (supplier of the plasma); host or cells: human plasma
T1 sequence (O75882 84-1272 isoform O75882-2 limits assumed): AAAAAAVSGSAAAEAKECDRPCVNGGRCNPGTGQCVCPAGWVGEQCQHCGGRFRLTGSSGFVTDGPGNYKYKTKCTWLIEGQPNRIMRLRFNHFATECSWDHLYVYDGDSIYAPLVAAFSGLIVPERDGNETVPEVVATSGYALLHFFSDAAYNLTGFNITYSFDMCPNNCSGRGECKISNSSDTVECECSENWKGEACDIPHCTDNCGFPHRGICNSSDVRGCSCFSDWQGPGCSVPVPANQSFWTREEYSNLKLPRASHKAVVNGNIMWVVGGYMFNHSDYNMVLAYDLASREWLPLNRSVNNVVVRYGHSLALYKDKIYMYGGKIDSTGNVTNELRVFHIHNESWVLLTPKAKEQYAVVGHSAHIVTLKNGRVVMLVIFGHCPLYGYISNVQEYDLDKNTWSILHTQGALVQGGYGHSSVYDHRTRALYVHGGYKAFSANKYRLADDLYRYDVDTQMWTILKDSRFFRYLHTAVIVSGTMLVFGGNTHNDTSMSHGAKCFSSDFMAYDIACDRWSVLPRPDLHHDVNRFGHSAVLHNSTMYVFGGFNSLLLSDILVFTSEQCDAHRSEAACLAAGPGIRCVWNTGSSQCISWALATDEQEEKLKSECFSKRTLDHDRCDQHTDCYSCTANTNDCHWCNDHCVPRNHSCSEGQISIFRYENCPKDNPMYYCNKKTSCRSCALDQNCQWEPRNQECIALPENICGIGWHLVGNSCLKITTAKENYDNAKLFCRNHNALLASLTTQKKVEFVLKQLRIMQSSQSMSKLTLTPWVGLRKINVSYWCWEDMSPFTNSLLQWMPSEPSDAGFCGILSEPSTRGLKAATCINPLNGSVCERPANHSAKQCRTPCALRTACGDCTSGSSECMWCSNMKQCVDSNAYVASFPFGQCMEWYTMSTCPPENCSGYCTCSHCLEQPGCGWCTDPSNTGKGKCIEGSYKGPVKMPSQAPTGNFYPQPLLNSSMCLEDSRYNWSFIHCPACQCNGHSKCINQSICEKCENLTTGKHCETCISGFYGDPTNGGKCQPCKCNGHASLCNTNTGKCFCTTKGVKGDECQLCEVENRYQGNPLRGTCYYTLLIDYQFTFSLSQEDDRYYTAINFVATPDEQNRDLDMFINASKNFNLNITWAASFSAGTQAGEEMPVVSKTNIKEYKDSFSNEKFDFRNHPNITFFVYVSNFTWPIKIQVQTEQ
Description: (§1) Attractin from human plasma (Baxter GmbH Germany, Plasmazentrum Halle) was prepared from 100 ml plasma from healthy humans. Matrix-assisted laser desorption/ionisation mass spectrometry was carried out using the Hewlett-Packard G2025 LD-TOF System.
To obtain spectra of peptides (25 μM) by the treatment of purified DP IV and attractin in the presence or absence of isoleucyl-thiazolidine (10 μM), substrates were incubated at 37° C. with 40 mM tricine/HCl buffer pH 7.6 and enzyme solution in a 2:2:1 ratio. Samples of the reaction mixtures were removed at various time intervals and mixed with equal volumes of the matrix solution. By mixing assay sample and matrix, the low pH of the matrix solution stopped the enzymatic reaction. A small volume of this mixture was transferred to a probe tip and immediately evaporated in a Hewlett-Packard G2024A Sample Prep Accessory.
(§2) In further studies the proteolytic activity of attractin has been investigated. […] In addition, the cleavage of bioactive peptides such as NP Y, RANTES, GIP, and Glucagon by purified attractin has been analyzed. […] Previously, differences within hydrolysis of the chemokine RANTES by DP IV and attractin have been described^4.

rats = conditions: administered into the dorsal periaqueductal gray matter; cited from earlier work
[2] = test system: olfactory bulbectomized rats; conditions: 7-day i.c.v. administration; cited from earlier work
[3] = target: T1, attractin from human plasma; test: Proteolytic activity of purified attractin (chromogenic substrate kinetics); type: biochemical
Description: as §1, §2

[4] = Anxiolytic effect on administration of the attractin inhibitor; type: in vivo; conditions: no method or data given

Compound: RANTES1-15: synthetic N-terminal fragment 1-15 of the chemokine RANTES (SPYSSDTTPCCFAYI; UniProt P13501 24-38, looked up, fragment)
Cleavage of bioactive peptide by purified attractin [1]: capable of releasing sequentially the first (Ser-Pro) as well as the second dipeptide (Tyr-Ser)

Compound: NC(N)=NCCC[C@@H](NC(=O)C(c1ccccc1)c1ccccc1)C(=O)NCc1ccc(O)cc1 [BIBP3226]
Time spent in active social interaction (rats): decreased the time spent in active social interaction

Compound: Neuropeptide Y [NP Y]
Behavioral and neurotransmitter deficits [2]: attenuated behavioral and neurotransmitters deficits
Cleavage of bioactive peptide by purified attractin [1]: capable of releasing the N-terminal dipeptide Tyr-Pro

Km [3]: 140 µM
Compound: NCC(=O)N1CCCC1C(=O)Nc1ccc([N+](=O)[O-])cc1 (stereo not drawn) [Gly-Pro-pNA]

Compound: isoleucyl-thiazolidine hemifumarate
Anxiolytic effect [4]: exhibits an anxiolytic effect
Cleavage of NP Y by attractin in presence of inhibitor ([1]; isoleucyl-thiazolidine 10 μM, pH 7.6, MALDI-TOF (FIG. 1B)): the cleavage was suppressed
